# Source: US5932742A, “Arylsulfonylimidazolone derivatives as an antitumor agent” (priority 1996, dated 1999)
# Entries after “also recorded” stand apart in the source; their conditions may differ. Counter-ions that a name gives are not always drawn. Like-named read-outs stand apart in the source and are kept apart here.
# How the values were obtained:
# [1] = test system: A549 (ATCC CCL 185): human lung carcinoma; assay: In vitro antitumor activity, MTT assay, A549; type: cell-based; conditions: for IC50: Homo sapiens, A549, 48 h
# Outline: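 A549 cells in RPMI 1640 with 10% FBS, 10,000 cells/well, pre-cultured 24 hrs, then exposed 48 hrs at 37° C to compound at 20 to 0.00128 μg/ml final (5-fold steps, DMSO below 0.5%). MTT added for 4 hrs, formazan dissolved in DMSO and read at 540nm; IC50 by linear regression of % of control.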
# [2] = test system: SK-OV-3 (ATCC HTB 77): human ovarian adenocarcinoma; assay: In vitro antitumor activity, MTT assay, SK-OV-3; type: cell-based; conditions: for IC50: Homo sapiens
# Outline: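 Cells seeded at 10,000 per well, grown 24 h, then exposed 48 h at 37 °C to compound at final 20 to 0.00128 μg/ml (5-fold dilutions, DMSO below 0.5%). MTT added for 4 h, formazan dissolved in DMSO, absorbance read at 540 nm; IC50 estimated by linear regression.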
# [3] = test system: K562 (ATCC CCL 243): human chronic myelogenous leukemia; assay: In vitro antitumor activity, MTT assay, K562; type: cell-based; conditions: for IC50: Homo sapiens, K562, 48 h
# Outline: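 K562 cells (10,000/well) pre-cultured 24 hrs, then exposed 48 hrs at 37° C. to serially 5-fold diluted compound, final 20 μg/ml to 0.00128 μg/ml, DMSO below 0.5%. MTT added 4 hrs; formazan dissolved in DMSO, A540 read. Cytotoxicity as test/control absorbance; IC50 by linear regression.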
# [4] = test system: P388 murine leukemia cells; assay: In vivo antitumor activity against P388 murine leukemia cell; set-up: species or system BDF1 mouse; conditions: once per 2 days for 10 days, median survival time
# Protocol: In vivo antitumor activity against P388 murine leukemia cell
# P388 murine leukemia cells were injected into BDF1 mouse intraperitoneally and grown in the peritoneal cavity. The P388 cells were periodically exudated and reinjected intraperitoneally into mouse for subculture.
# The cells were exudated, washed, resuspended in saline (2×10^7 cells/ml), and then injected intraperitoneally again into BDF1 mouse (2×10^6 cells/0.1 ml).
# Test compound dissolved in appropriate vehicle was administered intraperitonealy or orally into the mouse which was implanted with P388 murine leukemia tumor cells in the frequency of once per 2 days for 10 days. The vehicle was administered into the mouse of control group. Then, the number of live animals were daily checked to estimate the median survival time (MST).
# T/C ratio(%) of each test compound was calculated according to the following formula, and the test results are shown in Table 6.
# T/C(%)=(MST of test group.div.MST of control group)×100
# [5] = test system: Colon 26 murine colon cancer cell; assay: In vivo antitumor activity against Colon 26 murine colon cancer cell; set-up: species or system Balb/C mouse; conditions: 65 mg/kg p.o., once per 2 days for 10 days; tumor weight
# Protocol: In vivo antitumor activity against Colon 26 murine colon cancer cell
# Colon 26 murine cancer cells were injected into Balb/C mouse intradermally and grown in mouse abdominal skin to a solid tumor. The Colon 26 tumors were periodically excised from the mouse, digested with an enzyme mixture containing collagenase and DNase, and then intradermally reinjected into mouse for subculture.
# The cells were washed, resuspended in saline (5×10^6 cells/ml) and inoculated (5×10^5 cells/0.1 ml) intradermally to abdominal part of Balb/C mouse of which hair was removed in advance. Each test compound was dissolved in a solvent mixture of 60% propylene glycol(PG), 40% cremophor RH60(CP), and distilled water(DW) in the volume ratio of 30:20:50. When the size of tumor reached at appropriate level, the test compound was administered orally into the mouse which was implanted with colon 26 tumor cells in the frequency of once per 2 days for 10 days. The vehicle was also administered into the mouse of control group. The major and minor axis of tumor in each group were regularly measured by vernier calipers to estimate the increase of the tumor volume. Tumor volume was calculated on the basis of the following formula
# Tumor volume(mm^3)=(1/2)×[length of major axis(mm)]×[length
# When the tumor volume of the control group reached at about 1500 mm^3, the test animals were sacrificed by cervical dislocation and tumor was carefully excised and weighed. The inhibition rate of tumor growth (%) of each test compound was calculated as follows: […]
# group.div.Tumor weight of control group)]
# [6] = Acute toxicity test (LD50); type: in vivo; conditions: in vivo, po; gastric lavage, male Wistar rat; probit method; 95% confidence interval in parenthesis on the next line
# Protocol: (§1) Acute toxicity test (LD50)
# (§2) Male Wistar Rat (Charles River Japan, ca, 6 weeks old) was used as test animal and sodium-carboxymethylcellulose (Na-CMC, Sigma Chemical, U.S.A.) was used as a vehicle control. Compounds 57 and 65 were suspended in 0.5% Na-CMC, respectively, before dosing. Test compounds were administered by gastric lavage with the dosage of 400, 550, 700, 850 and ^1000 mg/kg. Control group was treated only with 0.5% Na-CMC. Each group was consisted of 5 rats.
# Male Wistar Rat = assay: Acute toxicity test (LD50); type: in vivo; conditions: gastric lavage
# Protocol: as §1, §2
# [7] = test system: Colo205 (ATCC CCL 222): human colon adenocarcinoma; assay: In vitro antitumor activity, MTT assay, Colo205; type: cell-based; conditions: for IC50: Homo sapiens
# Outline: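 Colo205 cells in RPMI 1640/10% FBS were exposed 48 h at 37 °C to 5-fold serial dilutions, final 20 to 0.00128 µg/ml, DMSO below 0.5%. MTT added for 4 h, formazan dissolved in DMSO, A540 read versus medium control; IC50 by linear regression.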
# [8] = test system: solid tumors and human tumor xenogafts; conditions: J. Med. Chem., 1990, 33, 2393; cited from earlier work
# [9] = literature; cited from earlier work
# [10] = COLO 205, Table 5, 48 hrs, read-out: IC50 (Colo205)
compound,measurement,setting,value
"Nc1ccc(C(=O)N2CCc3cc(S(=O)(=O)N4CC(c5ccccc5)NC4=O)ccc32)cc1 (stereo not shown) [Example 57, 4-phenyl-1-[N-(4-aminobenzoyl)indoline-5-sulfonyl]-4,5-dihydro-2-imidazolone.HCl]",IC50,[1]; Table 4,0.09 µg/mL
same,IC50,"[2]; SK-OV-3, Table 4, 48 hrs",0.572 µg/mL
same,IC50,"[3]; Table 4, read-out: IC50 (K562)",0.203 µg/mL
same,T/C rate (%),[4]; 50 mg/kg p.o.,133.3%
same,T/C rate (%),[4]; 65 mg/kg p.o.,146.0%
same,T/C rate (%),[4]; 100 mg/kg i.p.,166.7%
same,T/C rate (%),[4]; 100 mg/kg p.o.,175.0%
same,Inhibition rate of tumor growth (%),[5],67.4%
same,LD50,[6],644 mg/kg
same,"Acute toxicity, animals per group (dead/total)",Male Wistar Rat; 400 mg/kg,0/5
same,"Acute toxicity, animals per group (dead/total)",Male Wistar Rat; 550 mg/kg,1/5
same,"Acute toxicity, animals per group (dead/total)",Male Wistar Rat; 700 mg/kg,3/5
same,"Acute toxicity, animals per group (dead/total)",Male Wistar Rat; 850 mg/kg,5/5
same,"Acute toxicity, animals per group (dead/total)",Male Wistar Rat; 1000 mg/kg,5/5
"Nc1ccc(C(=O)N2CCc3cc(S(=O)(=O)N4C[C@H](c5ccccc5)NC4=O)ccc32)cc1 [Example 65, (S)-(+)-4-phenyl-1-[N-(4-aminobenzoyl)indoline-5-sulfonyl]-4,5-dihydro-2-imidazolone.HCl]",IC50,[1]; Table 5,0.105 µg/mL
same,IC50,[7]; [10],0.268 µg/mL
same,IC50,"[2]; SK-OV-3, Table 5, 48 hrs",0.062 µg/mL
same,IC50,"[3]; Table 5, read-out: IC50 (K562)",0.829 µg/mL
same,T/C rate (%),[4]; 65 mg/kg p.o.,138.5%
same,Inhibition rate of tumor growth (%),[5],69.2%
"Cl.NC(Cc1ccccc1)C(=O)Nc1ccc(C(=O)N2CCc3cc(S(=O)(=O)N4C[C@H](c5ccccc5)NC4=O)ccc32)cc1 (stereo partly drawn) [Example 68, (S)-(-)-4-phenyl-1-[N-{4-(2-amino-3-phenyl-propanoyl)aminobenzoyl}indoline-5-sulfonyl]-4,5-dihydro-2-imidazolone.HCl]",IC50 (A549),"[1]; Table 5, 48 hrs",0.083 µg/mL
same,IC50 (Colo205),"[7]; Table 5, 48 hrs",0.598 µg/mL
same,IC50 (SK-OV-3),"[2]; Table 5, 48 hrs",0.137 µg/mL
same,IC50 (K562),"[3]; Table 5, 48 hrs",0.561 µg/mL
same,Inhibition rate of tumor growth (%),[5],45.3%
"O=C(Nc1ccc(Cl)cc1)NS(=O)(=O)c1ccc2c(c1)CCC2 [Sulofenur, reference compound]",IC50,[1]; Table 1,12.8 µg/mL
same,IC50,[1]; Table 3,12.8 µg/mL
same,IC50,[1]; Table 4,12.8 µg/mL
same,IC50,[1]; Table 5,12.8 µg/mL
same,IC50,"[7]; COLO 205, Table 3, 48 hrs, read-out: IC50 (Col205)",48.9 µg/mL
same,IC50,[7]; [10],48.9 µg/mL
same,IC50,"[2]; SK-OV-3, Table 5, 48 hrs",78.2 µg/mL
same,IC50,"[3]; Table 3, read-out: IC50 (K562)",17.6 µg/mL
same,IC50,"[3]; Table 4, read-out: IC50 (K562)",17.6 µg/mL
same,IC50,"[3]; Table 5, read-out: IC50 (K562)",17.6 µg/mL
same,antitumor activity,[8],exhibits potent antitumor activity upon solid tumors; also recorded: exceptionally broad spectrum of activity upon solid tumors and human tumor xenogafts
same,side effects,[9],"does not produce serious side effects including myelosuppression, nausea, vomiting, alopecia, mucositis, and hepatotoxicity; also recorded: only shows minor side effects such as anemia or methemoglobinemia"
